The values below come from patent publication US10329291B2, “C5-C6-carbocyclic fused iminothiadiazine dioxides as BACE inhibitors, compositions, and their use” (Merck Sharp & Dohme Corp., priority 2015, dated 2019).

Sequence of soluble human BACE-1 catalytic domain (P56817 75-416): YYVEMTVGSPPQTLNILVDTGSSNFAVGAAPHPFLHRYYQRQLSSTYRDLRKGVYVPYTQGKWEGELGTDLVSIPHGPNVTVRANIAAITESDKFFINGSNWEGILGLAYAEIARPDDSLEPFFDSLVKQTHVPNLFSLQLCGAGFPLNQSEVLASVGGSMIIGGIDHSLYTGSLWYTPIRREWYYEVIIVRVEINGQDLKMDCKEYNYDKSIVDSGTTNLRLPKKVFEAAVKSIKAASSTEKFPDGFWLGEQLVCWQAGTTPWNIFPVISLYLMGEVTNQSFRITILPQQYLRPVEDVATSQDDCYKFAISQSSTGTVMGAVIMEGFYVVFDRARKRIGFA

The first assay deals with purified human autoBACE-2 (Homo sapiens (Human), UniProt Q9Y5Z0). As to the kind of experiment: BACE-2 Assay (BACE-HTRF assay).
Sequence of purified human autoBACE-2 (Q9Y5Z0 63-473 limits assumed): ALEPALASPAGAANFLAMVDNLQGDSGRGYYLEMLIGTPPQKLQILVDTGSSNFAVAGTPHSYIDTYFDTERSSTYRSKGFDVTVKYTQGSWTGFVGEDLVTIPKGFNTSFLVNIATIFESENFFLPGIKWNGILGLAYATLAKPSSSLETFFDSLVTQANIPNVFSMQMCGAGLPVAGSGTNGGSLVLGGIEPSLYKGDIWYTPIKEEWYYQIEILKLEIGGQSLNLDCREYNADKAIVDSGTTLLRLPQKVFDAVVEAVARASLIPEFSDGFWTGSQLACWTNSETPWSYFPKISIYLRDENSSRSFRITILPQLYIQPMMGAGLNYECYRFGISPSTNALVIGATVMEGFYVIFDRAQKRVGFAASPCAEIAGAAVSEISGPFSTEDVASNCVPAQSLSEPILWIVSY
Conditions: not given
Consider `CN1C(=N)N[C@@]2(c3cc(Oc4ncccc4F)ccc3F)CCC[C@H]2S1(=O)=O` [Example 34, (4aR,7aR)-4a-(2-fluoro-5-((3-fluoropyridin-2-yl)oxy)phenyl)-3-imino-2-methyloctahydrocyclopenta[e][1,2,4]thiadiazine 1,1-dioxide], for which the Ki came out at 75 nM.

The assay is the same for the next values; noted with them: read-out: BACE-2 Inh. @ 10 μM.
In the case of `CN1C(=N)N[C@@]2(c3cc(Br)ccc3F)CCC[C@H]2S1(=O)=O` [Example 33, (4aR,7aR)-4a-(5-bromo-2-fluorophenyl)-3-imino-2-methyloctahydrocyclopenta[e][1,2,4]thiadiazine 1,1-dioxide], the inhibition at 10 µM was 18%.

A further assay has as its target soluble human BACE-1 catalytic domain (Homo sapiens (Human), UniProt P56817). Put plainly: BACE-1 Ki Assay (BACE-1 HTRF FRET Assay). Format: biochemical. Particulars: Ki calculated from IC50 using the Cheng-Prusoff equation; QSY7-APPswe-Eu substrate, pH 5.0; read-out: BACE1 Ki. The source says: The following reagents were used in this assay. Na^+-Acetate pH 5.0; 1% Brij-35; Glycerol; Dimethyl Sulfoxide (DMSO); Recombinant human soluble BACE-1 catalytic domain (>95% pure); APP Swedish mutant peptide substrate (QSY7-APP^swe-Eu): QSY7-[…]-Europium-amide.
A homogeneous time-resolved FRET assay can be used to determine IC50 values for inhibitors of the soluble human BACE-1 catalytic domain. This assay monitors the increase of 620 nm fluorescence that resulted from BACE-1 cleavage of an APPswedish APP^swe mutant peptide FRET substrate (QSY7-[…]-Europium-amide). This substrate contains an N-terminal QSY7 moiety that serves as a quencher of the C-terminal Europium fluorophore (620 nm Em). In the absence of enzyme activity, 620 nm fluorescence is low in the assay and increased linearly over 3 hours in the presence of uninhibited BACE-1 enzyme. Inhibition of BACE-1 cleavage of the QSY7-APP^swe-Eu substrate by inhibitors is manifested as a suppression of 620 nm fluorescence.
Reactions are initiated by addition of 10 μl of 600 nM QSY7-APP^swe-Eu substrate (200 nM final) to give a final reaction volume of 30 μl in a 384 well Nunc HTRF plate. The reactions are incubated at 30° C. for 1.5 hours. […] Inhibitor IC50 values are derived from non-linear regression analysis of concentration response curves. Ki values are then calculated from IC50 values using the Cheng-Prusoff equation using a previously determined […] of 8 μM for the QSY7-APP^swe-Eu substrate at BACE-1. The example compounds of the invention were measured in this assay.
Take `CN1C(=N)N[C@@]2(c3cc(NC(=O)c4ccc(F)cn4)ccc3F)CCC[C@H]2S1(=O)=O` [Example 1]: the Ki is 10 nM. On the same count and under the same terms, to `COc1cnc2c(Nc3ccc(F)c([C@]45CCC[C@H]4S(=O)(=O)N(C)C(=N)N5)c3)nccc2n1` [Example 20, (4aR,7aR)-4a-(2-fluoro-5-(2-methoxypyrido[3,4-b]pyrazin-5-ylamino)phenyl)-3-imino-2-methyloctahydrocyclopenta[e][1,2,4]thiadiazine 1,1-dioxide] belongs 36 nM. On to `COc1ccc(C(=O)Nc2ccc(F)c([C@]34CCC[C@H]3S(=O)(=O)N(C)C(=N)N4)c2)nc1` [Example 15, N-(4-fluoro-3-((4aR,7aR)-3-imino-2-methyl-1,1-dioxidohexahydrocyclopenta[e][1,2,4]thiadiazin-4a(2H)-yl)phenyl)-5-methoxypicolinamide], for which the Ki is 16 nM.

As for `CN1C(=N)N[C@@]2(c3cc(NC(=O)c4ccc(C#N)cn4)ccc3F)CCC[C@H]2S1(=O)=O` [Example 5, 5-cyano-N-(4-fluoro-3-((4aR,7aR)-3-imino-2-methyl-1,1-dioxidohexahydrocyclopenta[e][1,2,4]thiadiazin-4a(2H)-yl)phenyl)picolinamide], the Ki is 4 nM. The same measure, in the same setting: to `CN1C(=N)N[C@@]2(c3cc(NC(=O)c4ccc(OC(F)F)cn4)ccc3F)CCC[C@H]2S1(=O)=O` [Example 3, 5-(difluoromethoxy)-N-(4-fluoro-3-((4aR,7aR)-3-imino-2-methyl-1,1-dioxidohexahydrocyclopenta[e][1,2,4]thiadiazin-4a(2H)-yl)phenyl)picolinamide] belongs 4 nM. The same measure, in the same setting: as for `Cc1cc(F)cnc1C(=O)Nc1ccc(F)c([C@]23CCC[C@H]2S(=O)(=O)N(C)C(=N)N3)c1` [Example 10, 5-fluoro-N-(4-fluoro-3-((4aR,7aR)-3-imino-2-methyl-1,1-dioxidohexahydrocyclopenta[e][1,2,4]thiadiazin-4a(2H)-yl)phenyl)-3-methylpicolinamide], the figure is 10 nM; as for `COc1cnc2c(Nc3ccc(F)c([C@]45CCC[C@H]4S(=O)(=O)N(C)C(=N)N5)c3)nccc2c1` [Example 19], 31 nM. The same measure, in the same setting: to `COc1cnc(C(=O)Nc2ccc(F)c([C@]34CCC[C@H]3S(=O)(=O)N(C)C(=N)N4)c2)c(C)n1` [Example 12, N-(4-fluoro-3-((4aR,7aR)-3-imino-2-methyl-1,1-dioxidohexahydrocyclopenta[e][1,2,4]thiadiazin-4a(2H)-yl)phenyl)-5-methoxy-3-methylpyrazine-2-carboxamide] belongs 23 nM; to `CN1C(=N)NC2(c3cc(NC(=O)C(F)F)ccc3F)CCCC2S1(=O)=O` (stereo not shown) [Example 36], 1080 nM. `CN1C(=N)N[C@@]2(c3cc(NC(=O)c4cnc(OCCF)cn4)ccc3F)CCC[C@H]2S1(=O)=O` [Example 2, N-(4-fluoro-3-((4aR,7aR)-3-imino-2-methyl-1,1-dioxidohexahydrocyclopenta[e][1,2,4]thiadiazin-4a(2H)-yl)phenyl)-5-(2-fluoroethoxy)pyrazine-2-carboxamide]: the inhibitory constant (Ki) was 18 nM. `CN1C(=N)N[C@@]2(c3cc(NC(=O)c4cnc(OCC(F)(F)F)cn4)ccc3F)CCC[C@H]2S1(=O)=O` [Example 16, N-(4-fluoro-3-((4aR,7aR)-3-imino-2-methyl-1,1-dioxidohexahydrocyclopenta[e][1,2,4]thiadiazin-4a(2H)-yl)phenyl)-5-(2,2,2-trifluoroethoxy)pyrazine-2-carboxamide]: the Ki is 7 nM. The same measure, in the same setting: to `CN1C(=N)N[C@@]2(c3cc(NC(=O)c4ccc(Cl)cn4)ccc3F)CCC[C@H]2S1(=O)=O` [Example 4, 5-chloro-N-(4-fluoro-3-((4aR,7aR)-3-imino-2-methyl-1,1-dioxidohexahydrocyclopenta[e][1,2,4]thiadiazin-4a(2H)-yl)phenyl)picolinamide] belongs 3 nM; to `COc1cnc(C(=O)Nc2ccc(F)c([C@]34CCC[C@H]3S(=O)(=O)N(C)C(=N)N4)c2)c(C)c1` [Example 11, N-(4-fluoro-3-((4aR,7aR)-3-imino-2-methyl-1,1-dioxidohexahydrocyclopenta[e][1,2,4]thiadiazin-4a(2H)-yl)phenyl)-5-methoxy-3-methylpicolinamide], 16 nM; to `CN1C(=N)N[C@@]2(c3cc(Oc4ncccc4F)ccc3F)CCC[C@H]2S1(=O)=O` [Example 34, (4aR,7aR)-4a-(2-fluoro-5-((3-fluoropyridin-2-yl)oxy)phenyl)-3-imino-2-methyloctahydrocyclopenta[e][1,2,4]thiadiazine 1,1-dioxide], 89 nM. Same read-out and setting: as for `C#CCOc1ccc(C(=O)Nc2ccc(F)c([C@]34CCC[C@H]3S(=O)(=O)N(C)C(=N)N4)c2)nc1` [Example 18, N-(4-fluoro-3-((4aR,7aR)-3-imino-2-methyl-1,1-dioxidohexahydrocyclopenta[e][1,2,4]thiadiazin-4a(2H)-yl)phenyl)-5-(prop-2-yn-1-yloxy)picolinamide], the figure is 3 nM; as for `CN1C(=N)N[C@@]2(c3cc(NC(=O)c4cnc(C(F)(F)F)cn4)ccc3F)CCC[C@H]2S1(=O)=O` [Example 14, N-(4-fluoro-3-((4aR,7aR)-3-imino-2-methyl-1,1-dioxidohexahydrocyclopenta[e][1,2,4]thiadiazin-4a(2H)-yl)phenyl)-5-(trifluoromethyl)pyrazine-2-carboxamide], 25 nM; as for `COCC(=O)Nc1ccc(F)c(C23CCCC2S(=O)(=O)N(C)C(=N)N3)c1` (stereo not shown) [Example 35, N-(4-fluoro-3-(3-imino-2-methyl-1,1-dioxidohexahydrocyclopenta[e][1,2,4]thiadiazin-4a(2H)-yl)phenyl)-2-methoxy acetamide], 368 nM. Same read-out and setting: as for `CN1C(=N)NC2(c3cc(NC(=O)c4ccc(Cl)cn4)ccc3F)CC2S1(=O)=O` (stereo not shown) [Example 32, 5-chloro-N-(4-fluoro-3-(4-imino-3-methyl-2,2-dioxido-2-thia-3,5-diazabicyclo[4.1.0]heptan-6-yl)phenyl)picolinamide], the figure is 2520 nM. Consider `COc1cnc(C(=O)Nc2ccc(F)c([C@]34CCC[C@H]3S(=O)(=O)N(C)C(=N)N4)c2)cn1` [Example 17, N-(4-fluoro-3-((4aR,7aR)-3-imino-2-methyl-1,1-dioxidohexahydrocyclopenta[e][1,2,4]thiadiazin-4a(2H)-yl)phenyl)-5-methoxypyrazine-2-carboxamide], for which the Ki was 11 nM. On to `COc1cnc2c(Nc3ccc(F)c([C@]45CCC[C@H]4S(=O)(=O)N(C)C(=N)N5)c3)ccnc2c1` [Example 21], for which the Ki was 206 nM. Regarding `Cc1ccc(C(=O)Nc2ccc(F)c([C@]34CCC[C@H]3S(=O)(=O)N(C)C(=N)N4)c2)nc1` [Example 7, N-(4-fluoro-3-((4aR,7aR)-3-imino-2-methyl-1,1-dioxidohexahydrocyclopenta[e][1,2,4]thiadiazin-4a(2H)-yl)phenyl)-5-methylpicolinamide], the Ki is 42 nM. In the case of `CN1C(=N)N[C@@]2(c3cc(NC(=O)c4ncc(Cl)cc4F)ccc3F)CCC[C@H]2S1(=O)=O` [Example 8, 5-chloro-3-fluoro-N-(4-fluoro-3-((4aR,7aR)-3-imino-2-methyl-1,1-dioxidohexahydrocyclopenta[e][1,2,4]thiadiazin-4a(2H)-yl)phenyl)picolinamide], the Ki was 4 nM. As to `Cc1cnc(C(=O)Nc2ccc(F)c([C@]34CCC[C@H]3S(=O)(=O)N(C)C(=N)N4)c2)cn1` [Example 6, N-(4-fluoro-3-((4aR,7aR)-3-imino-2-methyl-1,1-dioxidohexahydrocyclopenta[e][1,2,4]thiadiazin-4a(2H)-yl)phenyl)-5-methylpyrazine-2-carboxamide], the Ki is 126 nM.

With `CN1C(=N)N[C@@]2(c3cc(NC(=O)c4ncc(F)cc4F)ccc3F)CCC[C@H]2S1(=O)=O` [Example 9, 3,5-difluoro-N-(4-fluoro-3-((4aR,7aR)-3-imino-2-methyl-1,1-dioxidohexahydrocyclopenta[e][1,2,4]thiadiazin-4a(2H)-yl)phenyl)picolinamide], the Ki was 22 nM.

Staying with this assay, now noted: read-out: BACE-1 Inh. @ 10 μM.
Regarding `CN1C(=N)N[C@@]2(c3cc(Br)ccc3F)CCC[C@H]2S1(=O)=O` [Example 33, (4aR,7aR)-4a-(5-bromo-2-fluorophenyl)-3-imino-2-methyloctahydrocyclopenta[e][1,2,4]thiadiazine 1,1-dioxide], the inhibition at 10 µM amounted to 18%.

Turning to `CN1C(=N)NC2(c3ccccc3F)CCCC2S1(=O)=O` (stereo not shown) [Example 37, 4a-(2-fluorophenyl)-3-imino-2-methyloctahydrocyclopenta[e][1,2,4]thiadiazine 1,1-dioxide], the inhibition at 10 µM worked out at 43%.
